The values below come from PubChem BioAssay AID1996.

Converted amounts (≈) assume the structure as drawn. Bounds are passed on as bounds.

The conditions of this data set: buffer; pH 7.4; 200.0 µM.
Compound `O=C(CCc1nnc(-c2ccccc2)o1)NC1CCCCC1` showed a kinetic solubility above 44.9 µg/mL.
The result for `Cc1ccc2c(c1)N(CC(=O)N1CCCC(C)C1)C(=O)CO2` (centres undefined) reads 45.3 µg/mL (≈ 150 µM); that for `CC(C)c1nc2sc(C(=O)O)c(N)c2c2c1CCCC2`, 14.6 µg/mL (≈ 50.3 µM); that for `CC(C)NC(=O)COC(=O)c1ccc(Cl)c(S(N)(=O)=O)c1`, above 50.2 µg/mL.
The result for `CCn1c(O)c(C=Nc2ccccc2)sc1=O` reads 0.5 µg/mL (≈ 2.01 µM); that for `CCc1c(C)sc(NC(=O)/C=C/C(=O)O)c1C(N)=O`, above 42.3 µg/mL.
Consider `Cc1ccc(C(=O)NCc2ccc3c(c2)OCO3)cc1`, for which the kinetic solubility came to 34.8 µg/mL (≈ 129 µM).
As for `CCOC(=O)C1CCCCN1Cc1cccc(Oc2ccccc2)c1` (centres undefined), the kinetic solubility was below 0.7 µg/mL.
`COc1ccccc1/C=C/c1nc(C#N)c(N(C)C)o1` returned a solubility (kinetic) of 0.4 µg/mL (≈ 1.49 µM).
The figure for `O=C(N/N=C\c1cccnc1)c1ccccc1O` is above 36.2 µg/mL.
The result for `Cc1cc(C)nc(NC(=S)Nc2ccccc2)n1` reads 0.3 µg/mL (≈ 1.16 µM); that for `CN(Cc1ccccc1)C(=O)c1cc2cc(F)ccc2[nH]1`, 1 µg/mL (≈ 3.54 µM); that for `COCCNC(=O)C(OC(=O)c1ccco1)c1ccccc1F` (centres undefined), above 48.2 µg/mL.
The result for `O=C(Nc1ccccc1N1CCN(C(=O)c2ccccc2)CC1)c1ccco1` reads above 56.3 µg/mL; that for `Cc1ccc(-c2csc(NC(=O)c3c(C)noc3C)n2)cc1`, 6.4 µg/mL (≈ 20.4 µM); that for `O=C(NCCN1CCCCC1)Nc1cccc(C(F)(F)F)c1`, above 47.3 µg/mL.
Turning to `C=CCn1c(O)c(C(C)=NCCc2c[nH]c3ccccc23)c(=O)[nH]c1=O`, the kinetic solubility was 33.5 µg/mL (≈ 95.1 µM).
The result for `Cc1nonc1NC(=O)c1oc2ccc(F)cc2c1C` reads 0.7 µg/mL (≈ 2.54 µM).
The result for `CC1(CCc2ccccc2)NC(=O)N(CC(=O)Nc2c(F)cccc2F)C1=O` (centres undefined) reads above 58.1 µg/mL; that for `Cc1ccc(C)c(NC(=O)CSc2nccn2Cc2ccco2)c1`, above 51.2 µg/mL.
`Cc1ccc(NC(=O)CN(C)C(=O)CSc2ccccc2F)cc1` showed a solubility (kinetic) of 5.2 µg/mL (≈ 15 µM).
`COc1ccc(CSc2nc3ccccc3c(=O)[nH]2)cc1F`: the solubility (kinetic) was 1.3 µg/mL (≈ 4.11 µM). Compared with the last compound, the solubility kinetic is about 4-fold lower.
`COc1ccc(NC(=S)NC(=O)/C=C/c2ccco2)c(OC)c1` had a kinetic solubility below 0.4 µg/mL.
Consider `CC(CCN1CCN(c2ccccc2)CC1)c1ccccc1.Cl` (centres undefined), for which the kinetic solubility turned out to be 29.7 µg/mL.
`C=Cc1ccc(Cn2c(C(=O)O)c(C=O)c3ccccc32)cc1`: the kinetic solubility is above 45.8 µg/mL.
Take `Cc1ccc(NC(=O)C(Cc2ccccc2)n2cccc2)cc1` (centres undefined): the solubility (kinetic) was found to be 1.9 µg/mL (≈ 6.24 µM).
For the compound `Cc1nc(NC(=O)c2ccc(Br)o2)ccc1Br`, the kinetic solubility is below 0.4 µg/mL.
Consider `CC(=O)c1cccc(NC(=O)COC(=O)Cn2cnc3ccccc32)c1`, for which the solubility (kinetic) is above 52.7 µg/mL.
For `CC(C)c1ccc(C(=O)OCC(=O)NC2CCCC2)cc1`, the solubility (kinetic) is 11.8 µg/mL (≈ 40.8 µM).
The figure for `Cc1ccccc1Cn1c(C)nc2ccccc21` is above 35.4 µg/mL.
The result for `O=C1/C(=C/c2ccccn2)COc2ccccc21` reads 11.3 µg/mL (≈ 47.6 µM); that for `CN1CCCN(S(=O)(=O)c2cccc(C#N)c2)CC1.Cl`, above 47.4 µg/mL.
The result for `CC(C)c1ccccc1NC(=S)NCc1nc2ccccc2[nH]1` reads above 48.7 µg/mL.
As for `CC(=O)c1ccc(NC(=O)c2cc(C)no2)cc1`, the solubility (kinetic) turned out to be 13.3 µg/mL (≈ 54.5 µM).
Regarding `O=C(COC(=O)C1CC1)NCc1ccc(Cl)cc1Cl`, the solubility (kinetic) came to 41.9 µg/mL (≈ 139 µM).
The result for `COc1ccc(C(=O)CCC(=O)NCCc2ccccc2F)cc1` reads 16.9 µg/mL (≈ 51.3 µM); that for `COC(=O)c1c(C)[nH]c(C(=O)OCC(=O)c2c(N)n(CC(C)C)c(=O)n(C)c2=O)c1C`, 14 µg/mL (≈ 32.2 µM).
`COc1cc2[nH]c(C(=O)N3CCN(C)CC3)cc2c(OC)c1OC` came in with a kinetic solubility of 33.8 µg/mL (≈ 101 µM).
The result for `N#C/C(=C/c1ccncc1)c1nc2ccccc2c(=O)[nH]1` reads above 41.1 µg/mL.
The result for `CCN(CC)C(=O)c1ccc(NC(=O)c2ccc3c(c2)NC(=O)CS3)cc1` reads 6.2 µg/mL (≈ 16.2 µM); that for `COc1ccc(C(=O)NC(C)CCc2ccccc2)cc1` (centres undefined), 41.9 µg/mL (≈ 148 µM); that for `C=CCNC(=S)/N=c1/ccccn1CC`, 28.7 µg/mL (≈ 130 µM).
In the case of `COc1ccccc1N(CCC#N)C(=S)Nc1ccc(S(=O)(=O)N2CCOCC2)cc1`, the kinetic solubility was above 69.1 µg/mL.
The result for `Fc1ccc(CNC(=S)NCc2ccccc2)cc1` reads 11 µg/mL (≈ 40.1 µM); that for `COC(=O)c1cc(C)sc1NC(=O)c1ccco1`, below 0.6 µg/mL.
The figure for `O=C(NCCCCc1ccccc1)c1ccccc1Br` is 8.6 µg/mL (≈ 25.9 µM); for `COc1ccc(C(=O)c2ccccc2)c(OCC(=O)NC2CC2)c1` it is 31.5 µg/mL (≈ 96.8 µM); for `CCCC(=O)Nc1ccccc1NC(=O)c1ccc2c(c1)OCO2` it is above 49 µg/mL.
The result for `CC(C)(C)c1ccc(OCC(=O)Nc2ccncc2)cc1` reads 3.7 µg/mL (≈ 13 µM); that for `CCOc1ccc(NC(=O)Nc2ccccc2SC)cc1`, 1.4 µg/mL (≈ 4.63 µM); that for `COc1ccc(NC(=O)[C@@H]2CCCN2S(=O)(=O)c2ccccc2F)cc1S(=O)(=O)N1CCCCC1`, 37.1 µg/mL (≈ 70.6 µM).
The compound `CN1CCCN(C(=O)c2ccc(Cl)cc2)CC1` returned a solubility (kinetic) of 32.9 µg/mL (≈ 130 µM).
Consider `O=C(NCC(=O)N1CCN(c2ccccc2F)CC1)c1ccco1`, for which the kinetic solubility was above 49.7 µg/mL.
The figure for `Cc1cc(C)nc(SCCC(=O)Nc2ccccc2Cl)n1` is above 48.3 µg/mL; for `Cc1ccc(S(=O)(=O)NCCNc2ccc([N+](=O)[O-])cc2)cc1` it is 32.8 µg/mL (≈ 97.8 µM); for `O=C(NCC1CCCO1)c1cnn2c(C(F)F)cc(C3CC3)nc12` (centres undefined) it is above 50.5 µg/mL.
The result for `CCOC(=O)CN1C(=O)S/C(=C\c2ccc(-c3cccc(C(=O)O)c3C)o2)C1=O` reads 56.9 µg/mL (≈ 137 µM); that for `Cc1ccccc1NC(=S)NCCSc1ccc(Cl)cc1`, 3.3 µg/mL (≈ 9.79 µM).
The figure for `CCNC(=S)Nc1cccc(S(=O)(=O)NC2=NCCC2)c1` is 37.9 µg/mL (≈ 116 µM); for `CC1CCC(C(=O)NC(C(=O)Nc2ccccn2)C(C)C)CC1` (centres undefined) it is 13.5 µg/mL (≈ 42.5 µM).
As for `Cc1cc(NC(=O)c2ccc(Cl)cc2Cl)no1`, the solubility (kinetic) is 3.5 µg/mL (≈ 12.9 µM).
With `O=C(CNC(=O)c1ccccc1F)NCc1cccnc1`, the kinetic solubility was above 43.1 µg/mL.
In the case of `O=C(COc1ccc(Cl)cc1Cl)N1CCNC1=O`, the kinetic solubility is 31 µg/mL (≈ 107 µM).
In the case of `O=C(CN1CCOCC1)Nc1scc2c1c(=O)oc1ccccc12`, the solubility (kinetic) is below 0.4 µg/mL.
The result for `C=CCNC(=O)CN1c2cccc3cccc(c23)S1(=O)=O` reads 40.4 µg/mL (≈ 134 µM).
Turning to `Cc1ccc2[nH]c3c(c2c1)CCCC3NC(=O)CCl` (centres undefined), the solubility (kinetic) was above 41.5 µg/mL.
As for `O=C(CCNS(=O)(=O)c1cccc(C(F)(F)F)c1)NCc1ccco1`, the solubility (kinetic) was above 56.5 µg/mL.
On to `Cc1cc2oc(=O)cc(CN3CCOCC3)c2cc1Cl`, for which the solubility (kinetic) came out at 4.3 µg/mL (≈ 14.6 µM).
The result for `CC(=O)N(C)c1ccc(NC(=O)Nc2cccc3ccccc23)cc1` reads 1.3 µg/mL (≈ 3.9 µM).
The result for `O=C(COC(=O)Cc1ccccc1)NCc1ccc2c(c1)OCO2` reads above 49.1 µg/mL; that for `C=CCNc1nc2c(c(=O)[nH]c(=O)n2C)n1CCCc1ccccc1`, 5.2 µg/mL (≈ 15.3 µM); that for `COc1ccc(N=C(C)c2sc3ccccc3c2O)cc1`, below 0.6 µg/mL.
In the case of `CN(CCC#N)C(=O)c1cc2c(Cl)nc3ccccc3c2s1`, the solubility (kinetic) amounted to 1.1 µg/mL (≈ 3.34 µM).
Regarding `CCOc1ccccc1C1CC(=O)Nc2cc(C)c(C)cc21` (centres undefined), the kinetic solubility was below 0.6 µg/mL.
The figure for `CCC(=O)N1C(=O)C2(Nc3ccccc3N2)c2ccccc21` is above 44 µg/mL.
`CCOC(=O)CCNCc1ccc(F)cc1.Cl` showed a kinetic solubility above 39.3 µg/mL.
As to `CC(c1ccccc1)n1c(CO)nc2ccccc21` (centres undefined), the kinetic solubility was determined as 35.2 µg/mL (≈ 140 µM).
`Cc1ccc(Nc2cc(=O)[nH]c(=O)[nH]2)cc1Cl` displayed a solubility (kinetic) of 2 µg/mL (≈ 7.95 µM).
Turning to `O=C(CSCc1c(F)cccc1F)Nc1ccccc1`, the solubility (kinetic) turned out to be 37.7 µg/mL (≈ 129 µM).
`CC(C)(CO)NCc1c(OCc2ccc(Cl)cc2)ccc2ccccc12.Cl` displayed a kinetic solubility of 57.1 µg/mL.
The result for `O=C1NCC(COc2cccc3ccccc23)O1` (centres undefined) reads above 36.5 µg/mL; that for `O=C(CSc1ncccc1C(=O)O)c1cccc(C(F)(F)F)c1`, above 51.2 µg/mL.
On to `Cn1cnnc1Sc1ccc(S(C)(=O)=O)cc1[N+](=O)[O-]`, for which the kinetic solubility was above 47.1 µg/mL.
Regarding `COc1nc(NC(=O)c2ccc(F)cc2)nc(OC)c1-c1ccccc1`, the kinetic solubility stood at 6 µg/mL (≈ 17 µM).
`CC1CCCC(NC(=O)COC(=O)c2ccc([N+](=O)[O-])s2)C1C` (centres undefined) had a solubility (kinetic) of 15.4 µg/mL (≈ 45.2 µM).
The compound `O=C(CCc1nc(-c2ccccc2Cl)no1)NC1CCCC1` showed a kinetic solubility of 23 µg/mL (≈ 71.9 µM).
Regarding `O=C(Nc1ccccc1Cl)C1C(c2ccccc2)C1(Cl)Cl` (centres undefined), the solubility (kinetic) was below 0.7 µg/mL.
The figure for `Cc1noc(C)c1S(=O)(=O)N1CCCC1C(=O)O` (centres undefined) is above 41.1 µg/mL; for `O=c1oc(-c2ccccc2Br)nc2ccccc12` it is 5.2 µg/mL (≈ 17.2 µM); for `O=C(c1cccnc1)N1CCN(c2ccc3ccccc3n2)CC1` it is 39.3 µg/mL (≈ 123 µM).
With `Cc1cnc(NC(=O)CCc2ccccc2)s1`, the solubility (kinetic) worked out at 8.7 µg/mL (≈ 35.3 µM).
The result for `Cc1cc(Br)cc2c1NC(=O)C2(O)CC(=O)c1ccco1` (centres undefined) reads 47.7 µg/mL (≈ 136 µM); that for `CCOC(=O)N1CCN(c2nc3c(C)cccn3c(=O)c2C=O)CC1`, above 51.7 µg/mL; that for `CCCN(CC(=O)Nc1ccc(F)c(F)c1F)C(=O)c1ccc2c(c1)NC(=O)CS2`, 11.2 µg/mL (≈ 25.6 µM).
The figure for `CSc1ncccc1C(=O)OCC(=O)NC(C)C` is above 40.2 µg/mL; for `O=C(c1ccco1)N1CCN(S(=O)(=O)c2ccccc2)CC1` it is above 48.1 µg/mL.
In turn, `CC(=O)c1ccc(NC(=O)c2cc3ccccc3o2)cc1` gave a solubility (kinetic) of 1 µg/mL (≈ 3.58 µM).
The result for `Cc1ccc(CN2CCN(Cc3ccncc3)CC2CCO)o1` (centres undefined) reads 34.3 µg/mL (≈ 109 µM).
Compound `Cc1cc(C)cc(NC(=O)c2cc(C)n(Cc3cccs3)c2C)c1` showed a solubility (kinetic) of 2.3 µg/mL (≈ 6.8 µM).
The result for `CC(C)Oc1ccccc1NC(=O)CSc1nccn1C` reads above 45.8 µg/mL; that for `C[C@@H]1C2CC(C/C2=N\NC(=O)c2ccncc2)C1(C)C` (some centres undefined), above 40.7 µg/mL; that for `O=c1c2[nH]c3ccc(F)cc3c2ncn1Cc1ccncc1`, 3.3 µg/mL (≈ 11.2 µM).
The figure for `O=C(CN1C(=O)NC2(CCCCCC2)C1=O)NCc1ccc(Cl)cc1` is 23.5 µg/mL (≈ 64.6 µM).
For `Cc1cccc(-c2noc(-c3c(C)noc3C)n2)c1`, the solubility (kinetic) is below 0.2 µg/mL.

As a reminder, the solubility (kinetic) is the concentration staying in solution when a stock, usually in DMSO, is diluted into the medium.
